Test system: three-dimensional skin model (EPI-212SIT)
Assay: Irritation test using three-dimensional skin model, MTT relative viability (Test Example 1-5)
Format: cell-based
Details: 60 min exposure, 42 h post-incubation, 0.5 and 1.0 mass % pitavastatin calcium, powder
Method: The following <5-A> to <5-G> were used as test materials to perform exposure of the epidermis to the test materials and irritation evaluation in the following manner in accordance with OECD TG439 (In Vitro skin irritation test) using a kit for skin irritation test approved by OECD (EPI-212SIT manufactured by KURABO).
The epidermis in the kit was pre-incubated overnight, and then 30 μL of the test material was added to the stratum corneum side of the epidermis, and a nylon mesh was placed with tweezers to expose the stratum corneum to the test material. When the test material was solid (<5-E> described below), 25 μL of DPBS was added to the stratum corneum, and immediately after that, 25 mg of the solid material was added to the stratum corneum to expose the stratum corneum to the test material. After 60 minutes, the test material was completely removed by washing. Then, post-incubation was performed for 42 hours. In the process of the post-incubation, a culture medium was replaced once after a lapse of 24 hours. After the post-incubation, a reaction with an MTT solution was performed for 3 hours using an MTT assay kit (MTT-100-JP manufactured by KURABO), and a formazan dye produced by mitochondrial metabolism was extracted to measure the OD value. Based on the measurement result, relative viability was calculated by comparison with a negative control (<5-G> described below).

O=C([O-])C[C@H](O)C[C@H](O)/C=C/c1c(C2CC2)nc2ccccc2c1-c1ccc(F)cc1.O=C([O-])C[C@H](O)C[C@H](O)/C=C/c1c(C2CC2)nc2ccccc2c1-c1ccc(F)cc1.[Ca+2] [pitavastatin calcium]
relative viability (vs negative control DPBS): reduced in a manner dependent on the concentration

— patent publication US10258694B2, “Skin external preparation and skin irritation-reducing method” (priority 2014, dated 2019)
